From patent US11510859B2, “Method for improving aqueous solubility of water-insoluble or slightly water-soluble drugs” (MARINOMED BIOTECH AG, priority 2015, dated 2022)

Tests used:
Type in all cases: physicochemical
[1] = Budesonide solubility and storage stability in the presence of carrageenan (Examples 1, 2, 12, 13); conditions: 1.2 g/L iota-carrageenan, optionally 0.4 g/L kappa-carrageenan; 5% or 10% propylene glycol
Description: Samples of series A (0% dexpanthenol): 2.5 ml solution containing the respective escin concentration (McIlvaine 0.01%, 0.02%, 0.03% or McIlvaine buffer) were mixed with 5 ml carrageenan stock solution and 0.5 ml budesonide pre-solution and filled up to 10 ml with distilled water.
Samples of series B (2% dexpanthenol): 2.5 ml solution containing the respective escin concentration (McIlvaine 0.01%, 0.02%, 0.03% or McIlvaine buffer) were mixed with 0.2 ml dexpanthenol, 5 ml carrageenan stock solution and 0.5 ml budesonide pre-solution and filled up to 10 ml with distilled water. […]
After 3 months storage at room temperature, samples were taken and centrifuged for 11 min at 15700 rcf. The clear supernatant was filled into glass vials and the concentration of dissolved budesonide (maximal 500 μg/ml) was measured in duplicates by HPLC.
Budesonide was analyzed by RP-HPLC (UV absorbance detection at 244 nm) using isocratic elution with 55% acetonitrile 0.01% TFA/45% water 0.01% TFA at 1 ml/min for 7 min on an Agilent Zorbax SB C18 3.5 μm 4.6×150 mm column with 4×4 mm RP8 pre-column. From the budesonide-containing samples 40 μl were injected and analyzed. […]

[2] = Solubility of budesonide in 0.25x McIlvaine buffer with/without propylene glycol, saponin, dexpanthenol (Examples 5-9)
Description: Budesonide was analyzed by RP-HPLC (UV absorbance detection at 244 nm) using isocratic elution with 55% acetonitrile 0.01% TFA/45% water 0.01% TFA at 1 ml/min for 7 min on an Agilent Zorbax SB C18 3.5 μm 4.6×150 mm column with 4×4 mm RP8 pre-column. From the budesonide-containing samples 40 μl were injected and analyzed.
Buffer • B . . . 5% propylene glycol • C . . . 10% propylene glycol • D . . . 15% propylene glycol • y-axis . . . concentration of dissolved budesonide
FIGS. 2a and 2b refer to the concentrations of budesonide still dissolved after one month of storage at ambient temperature (T˜20-25° C.) in 0.25× McIlvaine buffer containing 5% (FIG. 2a) and 10% (FIG. 2b) propylene glycol (maximum concentration 550 μg/ml budesonide). […] Further increase of escin concentration remains substantially without additional benefit. […] 0% Dexpanthenol • B . . . 1% Dexpanthenol • C . . . 2% Dexpanthenol • D . . . 5% Dexpanthenol • y-axis . . . μg/ml dissolved budesonide • x-axis . . . w/v % Escin
FIGS. 3a and 3b are based on data sets identical to those of FIG. 2a/2b but after 3 months of storage at ambient temperature (T˜20-25° C.). • FIG. 3a: 5% propylene glycol; FIG. 3b: 10% propylene glycol • A . . . 0% Dexpanthenol • B . . . 1% Dexpanthenol • C . . . 2% Dexpanthenol • D . . . 5% Dexpanthenol • y-axis . . . μg/ml dissolved budesonide • x-axis . . . w/v % Escin
FIG. 4 represents that 0.03% w/v escin and 5% v/v dexpanthenol independently increase the solubility of budesonide in McIlvaine buffer in the absence of propylene glycol. […] Yet, the solubility of budesonide in this buffer system, i.e., in the absence of propylene glycol, remains at or below the corresponding values achieved in the presence of propylene glycol alone, i.e., in the absence of escin and dexpanthenol (see FIGS. 2a, b and 3a, b). The only exception being the value at column D which moderately exceeds the solubility values achieved with propylene glycol alone. • A . . . 0% Escin/0% Dexpanthenol • B . . . 0% Escin/5% Dexpanthenol • C . . . 0.03% Escin/0% Dexpanthenol • D . . . 0.03% Escin/5% Dexpanthenol • y-axis . . . concentration of dissolved budesonide in [μg/ml]
For Quillaja saponins, but not for glycyrrhizin, this applies also at a saponin concentration of 0.1%. […] Escin • B . . . Glycyrrhizin • C . . . Quillaja extract • * . . . w/v % Saponin component (escin, glycyrrhizin or Quillaja ext.) • # . . . v/v % Dexpanthenol • y-axis . . . concentration of dissolved budesonide

[3] = Saturation concentrations of drugs in buffered solvent, HPLC of supernatant (Example 4); conditions: for Saturation concentration in 10% propylene glycol or DMSO without escin or dexpanthenol / Saturation concentration in 10% propylene glycol or DMSO, 0.1% escin and 5% dexpanthenol: McIlvaine buffer pH 6.0, compound pre-dissolved in propylene glycol
Description: 250 μl “McIlvaine 0.1%” were mixed with 50 μl dexpanthenol stock solution, brought to 900 μl with distilled water, and combined and vigorously mixed with 100 μl experimental compound pre-dissolved resp. pre-suspended in propylene glycol. Alternative solutions with compound pre-dilutions/pre-suspensions in DMSO were prepared. Samples were centrifuged for 10 min at 15800 rcf. Aliquots of the clear supernatants were transferred into autosampler glass vials and the content of the dissolved experimental compounds was analyzed by HPLC using isocratic elution with 70% or 80% acetonitrile 0.01% TFA/[…] or 30% water 0.01% TFA at 1 ml/min and 50° C. for 10 min on an Agilent Zorbax Eclipse Plus C18 column (3.5 μm, 4.6×150 mm) and UV absorbance detection at the wavelengths appropriate for the respective experimental compound.

[4] = Micelle formation of saponins, Hoechst 33342 fluorescence
Description: In water and aqueous buffers containing a detergent below the critical micelle concentration fluorescence of the Hoechst 33342 dye is almost undetectable. Upon increase of the detergent concentration until the critical micelle concentration is reached micelles begin to form and the dye starts getting incorporated into the micelles, whereupon an increase of a fluorescence signal can be detected. For the experiments of this example, the dye was mixed at a final concentration of 7 μM with aqueous buffer comprising different concentrations of saponin in black, flat and clear bottom 96-well plates and emission spectra were measured using a microplate reader (filters used: ex=355 nm and em=460 nm). Finally, data were background corrected.

CCCC1O[C@@H]2C[C@H]3[C@@H]4CCC5=CC(=O)C=C[C@]5(C)[C@H]4[C@@H](O)C[C@]3(C)[C@]2(C(=O)CO)O1 (stereo partly shown) [Budesonide]
effect of carrageenans on solubility of the steroid [1]: do not substantially interfere with the solubility | effect of escin on solubility of the steroid ([2]; 0.01-0.02% w/v escin, 5% or 10% propylene glycol, one month storage at ambient temperature): dramatically increases the solubility | combined effect of escin and dexpanthenol on budesonide solubility ([2]; 0.03% escin and 5% dexpanthenol, McIlvaine buffer, no propylene glycol): synergy seems to occur | effect of dexpanthenol on stability of the experimental solutions ([2]; 3 months storage at ambient temperature, particularly at 5% propylene glycol and very low escin): seems to improve the stability | effect of glycyrrhizin and Quillaja saponaria extract saponins on steroid solubility ([2]; in the absence of dexpanthenol): without substantial effect

COc1cc(/C=C/C(=O)CC(=O)/C=C/c2ccc(O)c(OC)c2)ccc1O [Curcumin]
Saturation concentration in 10% propylene glycol or DMSO, escin and 5% dexpanthenol ([3]; 0.03% escin): 126 µg/mL | Saturation concentration in 10% propylene glycol or DMSO, saponin and 5% dexpanthenol ([3]; 2% glycyrrhizin instead of escin): 285 µg/mL | Saturation concentration in 10% propylene glycol or DMSO without escin or dexpanthenol [3]: <0.2 µg/mL

CC(=O)O[C@H]1C(=O)[C@@]2(C)[C@H]([C@H](OC(=O)c3ccccc3)[C@]3(O)C[C@H](OC(=O)[C@H](O)[C@@H](NC(=O)c4ccccc4)c4ccccc4)C(C)=C1C3(C)C)[C@]1(OC(C)=O)CO[C@@H]1C[C@@H]2O [Paclitaxel]
Saturation concentration in 10% propylene glycol or DMSO without escin or dexpanthenol [3]: 2.71 µg/mL | Saturation concentration in 10% propylene glycol or DMSO, 0.1% escin and 5% dexpanthenol [3]: 32.7 µg/mL

CC[C@@H]1/C=C(\C)C[C@H](C)C[C@H](OC)[C@H]2O[C@@](O)(C(=O)C(=O)N3CCCC[C@H]3C(=O)O[C@H](/C(C)=C/[C@@H]3CC[C@H](Cl)[C@H](OC)C3)[C@H](C)[C@@H](O)CC1=O)[C@H](C)C[C@@H]2OC [Pimecrolimus]
Saturation concentration in 10% propylene glycol or DMSO, saponin and 5% dexpanthenol ([3]; 1% glycyrrhizin instead of escin): 34.5 µg/mL | Saturation concentration in 10% propylene glycol or DMSO without escin or dexpanthenol [3]: <0.1 µg/mL

C=CC[C@@H]1/C=C(\C)C[C@H](C)C[C@H](OC)[C@H]2O[C@@](O)(C(=O)C(=O)N3CCCC[C@H]3C(=O)O[C@H](/C(C)=C/[C@@H]3CC[C@@H](O)[C@H](OC)C3)[C@H](C)[C@@H](O)CC1=O)[C@H](C)C[C@@H]2OC.O [Tacrolimus/FK506, Tacrolimus]
Saturation concentration in 10% propylene glycol or DMSO without escin or dexpanthenol [3]: 132 µg/mL | Saturation concentration in 10% propylene glycol or DMSO, 0.1% escin and 5% dexpanthenol [3]: 774 µg/mL

CC1(C)[C@@H](O[C@H]2O[C@H](C(=O)O)[C@@H](O)[C@H](O)[C@H]2O[C@@H]2O[C@H](C(=O)O)[C@@H](O)[C@H](O)[C@H]2O)CC[C@]2(C)[C@H]3C(=O)C=C4[C@@H]5C[C@@](C)(C(=O)O)CC[C@]5(C)CC[C@@]4(C)[C@]3(C)CC[C@@H]12 [glycyrrhizin]
concentration sufficient to trigger the formation of micelles (same RFU level) ([4]; Hoechst 33342 dye 7 μM, room temperature): 0.5% | increase of required concentration relative to escin ([4]; same fluorescence level): 25 fold
